Experimental data from patent US11591243B2, “Industrial process and system for the inactivation of liquid waste” (CRISTALIA PRODUTOS QUIMICOS FARMACEUTICOS LTDA., priority 2018, dated 2023).
Where a name gives a salt, the structure may show the parent alone.

Assays:
[1] = Inactivation kinetics by HPLC of high potency APIs with chemical agents; format: physicochemical; settings: chemical agents and analytical methods appropriate for each API; different exposure time; HPLC (FIG. 4)
Experimental: The inactivation kinetics by HPLC of high potency APIs bortezomib, decitabine, sunitinib malate, temozolomide and zoledronic acid was evaluated using chemical agents and analytical methods appropriate for each API.

[2] = Inactivation kinetics by HPLC of imatinib mesylate liquid waste with hypochlorous acid; format: physicochemical; settings: 20 mg/mL aqueous solution, 1% hypochlorous acid aqueous solution as inactivation chemical agent
Experimental: The inactivation kinetics by HPLC of a liquid waste comprising 20 mg/mL imatinib mesylate aqueous solution was evaluated using a 1% hypochlorous acid aqueous solution as inactivation chemical agent, as illustrated in FIGS. 2 and 3. It is possible to verify that 10 minutes of exposure were enough for complete inactivation of imatinib mesylate by hypochlorous acid.
The equipment used was a High-Performance Liquid Chromatography-HPLC, Agilent Tech. Model 1260.
Solution A: Prepare a mixture of methanol and acetonitrile (300:200) and homogenize.
Mobile Phase: transfer 1.65 g of sodium dihydrogen phosphate dihydrate to a beaker. Dissolve in 550 mL of purified water and adjust pH to 8.0±0.2 using trimethylamine and homogenize. Add 450 mL of solution A, homogenize and filter using a membrane of 0.45 μm.
Chromatographic Conditions:
Column: Develosil ODS HG-5 (4.6×150 mm, 5 μm)—Phenomenex
Column temperature: 30° C.
Chromatographic time: 50 minutes
Retention time for imatinib: about 18 minutes
Sample temperature: 5° C.

SMILES	inactivation by chemical agent action [1]	exposure time enough for complete inactivation [2] [min]
CCN(CC)CCNC(=O)c1c(C)[nH]c(/C=C2\C(=O)Nc3ccc(F)cc32)c1C [sunitinib malate]	completely inactivated	
CC(C)C[C@H](NC(=O)[C@H](Cc1ccccc1)NC(=O)c1cnccn1)B(O)O [bortezomib]	completely inactivated	
Cc1ccc(NC(=O)c2ccc(CN3CCN(C)CC3)cc2)cc1Nc1nccc(-c2cccnc2)n1 [imatinib mesylate]		≤ 10
